Measured values reported in patent US20060282913A1, “Method of efficiently growing modified morning glory plant” (SKILL/VISION CO., LTD., priority 2003, published 2006).

Each compound was assayed on immature embryos of modified morning glory "aosakaikaryuubaseisaisakibotan" (assay: Embryoid body induction from cultured immature embryos with different phytohormones). Conditions: immature embryos cultured as in Example 1A (MS medium, 60 g/l sucrose, 25° C., 2000 lux; NAA 3 mg/l), phytohormone varied.
Format: cell-based, Ipomoea nil
Description: Immature embryos were obtained from a parent tree of modified morning glory “aosakaikaryuubaseisaisakibotan”. Each individual immature embryo was separately cultured on an MS medium containing 3 mg/l of NAA and 60 g/l of sucrose at 25° C. under 2000 lux, to thereby obtain an embryoid body from the immature embryo. Each embryoid body obtained from different immature embryo was separately cultured as a discrete strain. Subculturing was repeated using the same medium at an interval of 4 weeks.
In substantially the same manner as in Example 1A, immature embryos were cultured except that phytohormone other than NAA, such as 4-fluorophenoxyacetic acid, 2,4-dichlorophenoxyacetic acid and picloram were used. As is apparent from a result shown in Table 4, in the case of phytohormone other than NAA, no embryoid bodies were produced, and thus mass proliferation was not attained.

Row | SMILES | Number of embryoid bodies formed per immature embryo
1 | O=C(O)COc1ccc(Cl)cc1Cl [2,4-dichlorophenoxyacetic acid] | 0
2 | O=C(O)COc1ccc(F)cc1 [4-fluorophenoxyacetic acid] | 0
3 | O=C(O)Cc1cccc2ccccc12 [NAA] | 10
4 | Nc1c(Cl)c(Cl)nc(C(=O)O)c1Cl [Picloram, picloram] | 0
